# Calls of active or inactive are those of the source. No cut-off for these calls is given here.
# Experiments:
# [1] = system: Mycobacterium tuberculosis; assay: Antitubercular activity against Mycobacterium tuberculosis H37Rv ATCC 27294 by microplate alamar blue assay; assay type: functional
# [2] = system: Mitochondrial membrane; assay: Induction of […] membrane potential loss in Mycobacterium tuberculosis H37Rv at <=MIC measured after 24 hrs by DiOC2 dye based fluorescence assay; assay type: cell membranes
# [3] = system: Mitochondrial membrane; assay: Induction of […] membrane potential loss in Mycobacterium tuberculosis H37Rv at <=MIC measured after 15 mins by DiOC2 dye based fluorescence assay; assay type: cell membranes
# [4] = Cytotoxicity against African green monkey Vero cells measured after 3 days by resazurin dye based fluorescence assay; assay type: toxicity, cell-based; details: African green monkey (Chlorocebus sabaeus)
# [5] = system: Mycobacterium avium; assay: Antibacterial activity against Mycobacterium avium ATCC 15769 incubated for 6 days by microplate alamar blue assay; assay type: functional; details: ATCC 15769, 144 h, time 6 day
# [6] = system: Mycobacterium tuberculosis; assay: Antitubercular activity against Mycobacterium tuberculosis KMA 5282 by microplate alamar blue assay; assay type: functional
# [7] = system: Mycobacterium tuberculosis; assay: Antitubercular activity against Mycobacterium tuberculosis KMA 4439 by microplate alamar blue assay; assay type: functional
# [8] = system: Mycobacterium tuberculosis; assay: Antitubercular activity against Mycobacterium tuberculosis KMA 1354 by microplate alamar blue assay; assay type: functional
# [9] = system: Mycobacterium marinum; assay: Antibacterial activity against Mycobacterium marinum ATCC 927 incubated for 5 days by microplate alamar blue assay; assay type: functional; details: ATCC 927, 120 h, time 5 day
# [10] = system: Mycobacteroides chelonae; assay: Antibacterial activity against Mycobacteroides chelonae ATCC 35752 incubated for 3 days by microplate alamar blue assay; assay type: functional; details: ATCC 35752, 72 h, time 3 day
# [11] = system: Mycobacterium kansasii; assay: Antibacterial activity against Mycobacterium kansasii ATCC 12478 incubated for 7 days by microplate alamar blue assay; assay type: functional; details: ATCC 12478, 168 h, time 7 day
# [12] = system: Mycobacterium tuberculosis; assay: Antitubercular activity against Mycobacterium tuberculosis KMA 3899 by microplate alamar blue assay; assay type: functional
# [13] = system: Mycobacterium tuberculosis; assay: Antitubercular activity against Mycobacterium tuberculosis H37Rv by microplate alamar blue assay; assay type: functional
# [14] = system: Mycobacterium tuberculosis; assay: Bactericidal activity against Mycobacterium tuberculosis H37Rv measured up to 7 days by luminescence assay; assay type: functional; details: time <= 7 day
# [15] = system: Mycobacterium tuberculosis; assay: Antitubercular activity against Mycobacterium tuberculosis KMA 4244 by microplate alamar blue assay; assay type: functional
# [16] = system: Mycobacteroides abscessus; assay: Antibacterial activity against Mycobacterium abscessus ATCC 19977 incubated for 3 days by microplate alamar blue assay; assay type: functional; details: ATCC 19977, 72 h, time 3 day
# [17] = system: Mycobacterium tuberculosis; assay: Antitubercular activity against Mycobacterium tuberculosis H37Rv assessed as post antibiotic affect by measuring time required for 1 log10 increase in RLU at 0.05 uM measured daily for up to 14 days by luminescence assay; assay type: functional; details: time <= 14 day
# [18] = system: Mycobacterium tuberculosis; assay: Antitubercular activity against Mycobacterium tuberculosis H37Rv assessed as post antibiotic affect by measuring time required for 1 log10 increase in RLU at 0.5 uM measured daily for up to 14 days by luminescence assay; assay type: functional; details: time <= 14 day
# [19] = system: Mycobacterium tuberculosis; assay: Antitubercular activity against Mycobacterium tuberculosis H37Rv assessed as post antibiotic affect by measuring time required for 1 log10 increase in RLU at 5 uM measured daily for up to 14 days by luminescence assay; assay type: functional; details: time <= 14 day
# [20] = system: Enterococcus faecium; assay: Antibacterial activity against Enterococcus faecium by microplate alamar blue assay; assay type: functional
# [21] = system: Acinetobacter baumannii; assay: Antibacterial activity against Acinetobacter baumannii by microplate alamar blue assay; assay type: functional
# [22] = system: Pseudomonas aeruginosa; assay: Antibacterial activity against Pseudomonas aeruginosa by microplate alamar blue assay; assay type: functional
# [23] = system: Staphylococcus aureus; assay: Antibacterial activity against Staphylococcus aureus by microplate alamar blue assay; assay type: functional
# [24] = system: Klebsiella pneumoniae; assay: Antibacterial activity against Klebsiella pneumoniae by microplate alamar blue assay; assay type: functional
# [25] = system: Klebsiella aerogenes; assay: Antibacterial activity against Enterobacter aerogenes by microplate alamar blue assay; assay type: functional
# [26] = system: Candida albicans; assay: Antifungal activity against Candida albicans by microplate alamar blue assay; assay type: functional
smiles,measurement,setting,value
CC(C)N(C(=O)CN(CC(c1ccccc1)c1ccccc1)C(=O)CNCC1CCCO1)C(C)C (stereo not drawn),MIC90,[1],24.4 µg/mL
O=C(CCNCCC(c1ccccc1)c1ccccc1)N1CCCC1,MIC90,[1],23.5 µg/mL
CC(C)N(C(=O)CCN(CC(c1ccccc1)c1ccccc1)C(=O)CCNCC1CCCO1)C(C)C (stereo not drawn),MIC90,[1],24.2 µg/mL
COCCN(CCOC)C(=O)CCNCCC(c1ccccc1)c1ccccc1,MIC90,[1],8.9 µg/mL
N#CC(C#N)=NNc1cccc(Cl)c1 [CARBONYL CYANIDE M-CHLOROPHENYLHYDRAZONE],Activity,[2],Active
same,Activity,[3],inactive
same,IC50 at 3 days,[4],10.8 µM
CC(C)N(C(=O)CCNCc1cccs1)C(C)C,MIC90,[1],43.8 µg/mL
NNC(=O)c1ccncc1 [ISONIAZID],MIC90,[5],> 8 µM
same,MIC90,[6],0.98 µM
same,MIC90,[7],0.41 µM
same,MIC90,[8],0.46 µM
same,MIC90,[9],> 8 µM
same,MIC90,[10],> 8 µM
same,MIC90,[11],> 8 µM
same,MIC90,[12],0.43 µM
same,MIC90,[13],0.31 µM
same,MBC99,[14],250 µg/mL
same,MIC90,[15],1.55 µM
same,MIC90,[16],> 8 µM
same,MIC90,[1],0.46 µM
NC(=O)c1cnccn1 [PYRAZINAMIDE],MIC90,[6],0.92 µM
same,MIC90,[7],0.49 µM
same,MIC90,[8],0.25 µM
same,MIC90,[12],0.24 µM
same,MIC90,[13],0.43 µM
same,MIC90,[15],1.51 µM
CC/C(=C(\c1ccccc1)c1ccc(OCCN(C)C)cc1)c1ccccc1 [TAMOXIFEN],IC50 at 3 days,[4],13.9 µM
O=C(CCNCC1CCCO1)N1CCCC1 (stereo not drawn),MIC90,[1],> 100 µg/mL
CC(C)/N=c1\cc2n(-c3ccc(Cl)cc3)c3ccccc3nc-2cc1Nc1ccc(Cl)cc1 [CLOFAZIMINE],MIC90,[5],5.78 µM
same,MIC90,[9],9.92 µM
same,MIC90,[10],5.89 µM
same,MIC90,[11],5.68 µM
same,MIC90,[16],10.7 µM
CC(C)N(C(=O)CNCCC(c1ccccc1)c1ccccc1)C(C)C,MIC90,[1],9.55 µg/mL
CC[C@H]1OC(=O)[C@H](C)[C@@H](O[C@H]2C[C@@](C)(OC)[C@@H](O)[C@H](C)O2)[C@H](C)[C@@H](O[C@@H]2O[C@H](C)C[C@H](N(C)C)[C@H]2O)[C@](C)(OC)C[C@@H](C)C(=O)[C@H](C)[C@@H](O)[C@]1(C)O [CLARITHROMYCIN],MIC90,[5],2.35 µM
same,MIC90,[9],4.72 µM
same,MIC90,[10],0.15 µM
same,MIC90,[11],2.3 µM
same,MIC90,[16],> 10 µM
Nc1c2c(nc3ccccc13)CCCC2 [TACRINE],IC50 at 3 days,[4],90.7 µM
O=C(CCNCC1CCCO1)NCc1cccc2ccccc12 (stereo not drawn),MIC90,[1],87.2 µg/mL
CCN(CC)C(=O)CCNCCC1CCCCCCC1,MIC90,[1],12.2 µg/mL
COCCN(CCOC)C(=O)CCNCC1CCCO1 (stereo not drawn),MIC90,[1],92.8 µg/mL
CO[C@H]1/C=C/O[C@@]2(C)Oc3c(C)c(O)c4c(O)c(c(/C=N/N5CCN(C)CC5)c(O)c4c3C2=O)NC(=O)/C(C)=C\C=C\[C@H](C)[C@H](O)[C@@H](C)[C@@H](O)[C@@H](C)[C@H](OC(C)=O)[C@@H]1C [RIFAMPIN],MIC90,[5],3.05 µM
same,MIC90,[6],0.14 µM
same,MIC90,[7],0.22 µM
same,MIC90,[8],0.05 µM
same,MIC90,[9],2.23 µM
same,PAE,[17],~24 h
same,MIC90,[10],6.93 µM
same,MIC90,[11],2.36 µM
same,PAE,[18],~60 h
same,MIC90,[12],0.04 µM
same,MIC90,[13],0.06 µM
same,MBC99,[14],70 µg/mL
same,MIC90,[15],0.11 µM
same,PAE,[19],~60 h
same,MIC90,[16],> 10 µM
same,MIC90,[1],0.02 µM
same,IC50 at 3 days,[4],> 95.7 µM
COc1nc2ccc(Br)cc2cc1[C@@H](c1ccccc1)[C@@](O)(CCN(C)C)c1cccc2ccccc12 [BEDAQUILINE],MIC90,[5],0.44 µM
same,MIC90,[6],0.24 µM
same,MIC90,[7],0.24 µM
same,MIC90,[8],0.24 µM
same,MIC90,[9],0.45 µM
same,MIC90,[10],0.48 µM
same,MIC90,[11],0.45 µM
same,MIC90,[12],0.12 µM
same,MIC90,[13],0.12 µM
same,MBC99,[14],150 µg/mL
same,MIC90,[15],0.24 µM
same,MIC90,[16],0.49 µM
same,MIC90,[1],0.01 µM
same,IC50 at 3 days,[4],51.4 µM
CC(=O)NC[C@H]1CN(c2ccc(N3CCOCC3)c(F)c2)C(=O)O1 [LINEZOLID],MIC90,[5],93.5 µM
same,MIC90,[6],1.89 µM
same,MIC90,[7],0.95 µM
same,MIC90,[8],0.91 µM
same,MIC90,[9],17.4 µM
same,MIC90,[10],5.13 µM
same,MIC90,[11],85.6 µM
same,MIC90,[12],0.48 µM
same,MIC90,[13],0.97 µM
same,MBC99,[14],7310 µg/mL
same,MIC90,[15],1 µM
same,MIC90,[16],88 µM
same,MIC90,[1],0.93 µM
COCCN(CCOC)C(=O)CCN(CC1CCCO1)C(=O)CCNCC(c1ccccc1)c1ccccc1 (stereo not drawn),MIC90,[1],6.22 µg/mL
O=C(CNCCC(c1ccccc1)c1ccccc1)N1CCCC1,MIC90,[1],11.6 µg/mL
CCN(CC)C(=O)CN(Cc1cccc2ccccc12)C(=O)CNCCC(c1ccccc1)c1ccccc1,MIC90,[1],4.84 µg/mL
CC(C)N(C(=O)CCNCC(c1ccccc1)c1ccccc1)C(C)C,MIC90,[1],10.2 µg/mL
COCCN(CCOC)C(=O)CCNC(=O)CCNCc1cccc2ccccc12,MIC90,[1],3.87 µg/mL
C[C@H]1c2cccc(O)c2C(=O)C2=C(O)[C@]3(O)C(=O)C(C(N)=O)=C(O)[C@@H](N(C)C)[C@@H]3[C@@H](O)[C@@H]21 [DOXYCYCLINE ANHYDROUS],MIC90,[20],< 0.195 µM
same,MIC90,[21],< 0.195 µM
same,MIC90,[22],5.49 µM
same,MIC90,[23],< 0.195 µM
same,MIC90,[24],0.34 µM
same,MIC90,[25],2.84 µM
CC(C)N(C(=O)CNCc1cccc2ccccc12)C(C)C,MIC90,[6],93.6 µg/mL
same,MIC90,[7],95.2 µg/mL
same,MIC90,[8],85 µg/mL
same,MIC90,[12],49.9 µg/mL
same,MIC90,[13],88.8 µg/mL
same,MIC90,[15],95.5 µg/mL
same,MIC90,[1],43.3 µg/mL
C[C@@H]1[C@H](O)[C@@H](C)/C=C/C=C/C=C/C=C/C=C/C=C/C=C/[C@H](O[C@@H]2O[C@H](C)[C@@H](O)[C@H](N)[C@@H]2O)C[C@@H]2O[C@](O)(C[C@@H](O)C[C@@H](O)[C@H](O)CC[C@@H](O)C[C@@H](O)CC(=O)O[C@H]1C)C[C@H](O)[C@H]2C(=O)O [AMPHOTERICIN B],MIC90,[26],< 0.195 µM
CC(C)N(C(=O)CNCC(c1ccccc1)c1ccccc1)C(C)C,MIC90,[1],20.4 µg/mL
O=[N+]([O-])c1cn2c(n1)OC[C@@H](OCc1ccc(OC(F)(F)F)cc1)C2 [PRETOMANID],MBC99,[14],480 µg/mL
same,MIC90,[1],0.1 µM
COc1c(N2C[C@@H]3CCCN[C@@H]3C2)c(F)cc2c(=O)c(C(=O)O)cn(C3CC3)c12 [MOXIFLOXACIN],MIC90,[20],1.58 µM
same,MIC90,[21],< 0.195 µM
same,MIC90,[6],0.48 µM
same,MIC90,[7],0.33 µM
same,MIC90,[22],0.75 µM
same,MIC90,[8],0.12 µM
same,MIC90,[12],0.11 µM
same,MIC90,[23],< 0.195 µM
same,MIC90,[13],0.29 µM
same,MBC99,[14],470 µg/mL
same,MIC90,[24],< 0.195 µM
same,MIC90,[15],0.42 µM
same,MIC90,[1],0.19 µM
same,MIC90,[25],< 0.195 µM
same,IC50 at 3 days,[4],> 100 µM
O=C(CCNCc1cccc2ccccc12)NCCC(c1ccccc1)c1ccccc1,MIC90,[1],43.8 µg/mL
CC(C)N(C(=O)CN(Cc1cccc2ccccc12)C(=O)CNCc1cccs1)C(C)C,MIC90,[1],11.6 µg/mL
O=C(CNCc1cccc2ccccc12)NCCC(c1ccccc1)c1ccccc1,MIC90,[1],7.25 µg/mL
